Test results published in US8420654B2 (Eli Lilly and Company, priority 2008, dated 2013).

How the values were obtained:
hCB-1 [1] = molecular target: T1, hCB-1 (Homo sapiens, UniProt P21554); assay: hCB1-CHO agonist mode SPA GTP-γ-35S binding assay; assay type: biochemical; details: for hCB-1 SPA GTPγS CHO Membrane Agonist % Relative Efficacy: normalized to full agonist methanandamide, below zero = inverse agonist; for EC50: human CB-1 CHO membranes, agonist mode (inverse agonism), read-out: hCB-1 SPA GTPγS CHO Membrane Agonist Relative EC50 inverse
T1 construct: purchased Applied Cell Sciences, Rockville, Md; host or cells: CHO cells (membranes)
T1 sequence (P21554 whole entry): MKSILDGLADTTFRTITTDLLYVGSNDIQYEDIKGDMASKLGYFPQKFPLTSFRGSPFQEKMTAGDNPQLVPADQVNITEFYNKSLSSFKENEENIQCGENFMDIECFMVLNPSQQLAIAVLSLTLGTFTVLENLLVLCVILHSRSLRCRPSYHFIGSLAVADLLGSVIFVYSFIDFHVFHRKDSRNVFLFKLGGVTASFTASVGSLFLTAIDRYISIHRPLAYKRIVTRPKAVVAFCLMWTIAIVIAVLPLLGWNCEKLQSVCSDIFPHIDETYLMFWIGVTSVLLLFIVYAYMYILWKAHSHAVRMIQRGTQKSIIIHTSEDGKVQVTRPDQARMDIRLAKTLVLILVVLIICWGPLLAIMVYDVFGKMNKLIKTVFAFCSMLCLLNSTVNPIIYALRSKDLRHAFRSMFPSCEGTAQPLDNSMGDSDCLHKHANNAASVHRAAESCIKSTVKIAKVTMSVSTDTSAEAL
Protocol: (§1) Compounds of the present invention may be tested for functional activity at the CB-1 and CB-2 receptors in both agonist and antagonist modes using SPA (Scintillation Proximity Assay) based GTP-γ-^35S binding assays. All assay components are prepared in assay buffer (20 mM HEPES, 100 mM NaCl, 5 mM MgCl2, pH 7.4) at room temperature. Semi-log dilutions of test compound are prepared in assay buffer containing BSA (0.125% final conc.) for the agonist mode assays. For the antagonist mode assays, test compounds are prepared in the same manner but also include an 80% efficacious dose of a full agonist (methanandamide). GTP-γ^35S binding for the antagonist assay may be measured in a 96 well format using a modification of an antibody capture technique previously described. (DeLapp, N W, et al. (1999) J Pharmacol Exp Ther 289:946-955.) The CB-2 receptor agonist activity may be measured using a similar method using hCB2-Sf9 membranes. The CB-1 receptor agonist activity may be measured using a whole membrane capture technique using hCB1-CHO membranes. All incubations are done at room temperature.
hCB1-CHO membrane, GDP (1 μM final conc.), and saponin (10 ng/mL final conc., Sigma, St Louis, Mo.) are combined and prepared on ice as for the antagonist assays, above. Diluted test compounds, GTP-γ-^35S (500 nM final conc.) and membranes are combined in the assay plate and incubated for 30 min. Then 1 mg/well Wheatgerm Agglutinin SPA beads (GE Healthcare, Piscataway, N.J.) are added, plates are sealed and vortexed and incubate for 1 hr. before spinning and counting in the same fashion as for the antagonist assays, above.
(§2) Data are analyzed as follows: Background is subtracted from all wells. Percent agonist efficacy is determine by normalizing agonist/inverse agonist dose response data to the response obtained for a full agonist (methanandamide). Percent antagonist inhibition is calculated by first normalizing the data to the signal generated by a saturating concentration of the full agonist (methanandamide). Then the data are analyzed using a 4-parameter logistic reduced fit (Activity Base™ and XLFit3™ from IDBS, Emeryville, Calif.). Kb values are determined using a modification of the Cheng-Prusoff relationship: Kb=IC50/(1+[agonist]/EC50), where “IC50” is determined from a four parameter fit of displacement curves, “[agonist]” is the agonist challenge concentration (nM), and “EC50” is determined from a four parameter fit of a full agonist concentration response curve (Cheng and Prusoff 1973). Mean Kb values are calculated as a mean of at least three independent determinations±standard error of the mean (SEM). (Cheng Y C and Prusoff W H. (1973), Biochem Pharmacol 22:3099-3108.) Exemplified compounds are found to be potent CB-1 inverse agonists (Kb≦10 nM, typically <2 nM) and to be selective over the CB-2 receptor (Kb CB-2/Kb CB-1>500, typically >1000).

hCB-2 [2] = molecular target: T2, hCB-2 (Homo sapiens, UniProt P34972); assay: hCB2-Sf9 antagonist mode SPA GTP-γ-35S binding assay; assay type: biochemical; details: human CB-2 Sf9 membranes, antagonist mode vs methanandamide; read-out: hCB-2 SPA GTPγS Sf9 Membrane Antagonist Kb
T2 construct: purchased Perkin Elmer, Boston, Mass; host or cells: Sf9 insect cells (membranes)
T2 sequence (P34972 whole entry): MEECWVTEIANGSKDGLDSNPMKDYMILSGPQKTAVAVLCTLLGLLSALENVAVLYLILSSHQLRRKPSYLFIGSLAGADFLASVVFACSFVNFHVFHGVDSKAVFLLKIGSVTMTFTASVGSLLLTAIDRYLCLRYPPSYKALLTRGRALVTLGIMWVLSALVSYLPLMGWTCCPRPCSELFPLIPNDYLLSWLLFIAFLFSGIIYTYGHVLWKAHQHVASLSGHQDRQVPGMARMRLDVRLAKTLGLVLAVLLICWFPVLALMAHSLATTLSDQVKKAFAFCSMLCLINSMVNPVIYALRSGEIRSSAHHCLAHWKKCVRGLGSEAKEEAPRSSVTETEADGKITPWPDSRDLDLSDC
Protocol: as §1
hCB1-Sf9 and hCB2-Sf9 antagonist Assays:
hCB1-5f9 and hCB2-5f9 membranes (Perkin Elmer, Boston, Mass.) are prepared essentially as above with 1 μM (final conc.) GDP for hCB1-5f9 and 0.05 μM (final conc.) GDP for hCB2-5f9. The assay is run essentially as described for the CHO membranes above. Diluted membranes are pre-incubated with test compound for 15 min., which is followed by addition of GTP-γ-^35S and a further 35 min. incubation. Nonidet P40 and anti-Gi-antibody are added sequentially with a 15 min. incubation after each addition. The SPA beads are then added, the plates are sealed and vortexed, and then incubated at room temperature for 1 hr.
Data are analyzed as follows: Background is subtracted from all wells. Percent agonist efficacy is determine by normalizing agonist/inverse agonist dose response data to the response obtained for a full agonist (methanandamide). Percent antagonist inhibition is calculated by first normalizing the data to the signal generated by a saturating concentration of the full agonist (methanandamide). Then the data are analyzed using a 4-parameter logistic reduced fit (Activity Base™ and XLFit3™ from IDBS, Emeryville, Calif.). Kb values are determined using a modification of the Cheng-Prusoff relationship: Kb=IC50/(1+[agonist]/EC50), where “IC50” is determined from a four parameter fit of displacement curves, “[agonist]” is the agonist challenge concentration (nM), and “EC50” is determined from a four parameter fit of a full agonist concentration response curve (Cheng and Prusoff 1973). Mean Kb values are calculated as a mean of at least three independent determinations±standard error of the mean (SEM). […]

CYP2C9 = molecular target: T3, CYP2C9 (Homo sapiens, UniProt P11712); assay: Human CYP fingerprinting, sulfaphenazole inhibitor; assay type: in vitro ADME; details: 4 μM, human liver microsomes, 30 min, sulfaphenazole 5 μM
T3 construct: pooled, mixed gender, human liver microsomes; from tissue; host or cells: pooled, mixed gender human liver microsomes
T3 sequence (P11712 whole entry): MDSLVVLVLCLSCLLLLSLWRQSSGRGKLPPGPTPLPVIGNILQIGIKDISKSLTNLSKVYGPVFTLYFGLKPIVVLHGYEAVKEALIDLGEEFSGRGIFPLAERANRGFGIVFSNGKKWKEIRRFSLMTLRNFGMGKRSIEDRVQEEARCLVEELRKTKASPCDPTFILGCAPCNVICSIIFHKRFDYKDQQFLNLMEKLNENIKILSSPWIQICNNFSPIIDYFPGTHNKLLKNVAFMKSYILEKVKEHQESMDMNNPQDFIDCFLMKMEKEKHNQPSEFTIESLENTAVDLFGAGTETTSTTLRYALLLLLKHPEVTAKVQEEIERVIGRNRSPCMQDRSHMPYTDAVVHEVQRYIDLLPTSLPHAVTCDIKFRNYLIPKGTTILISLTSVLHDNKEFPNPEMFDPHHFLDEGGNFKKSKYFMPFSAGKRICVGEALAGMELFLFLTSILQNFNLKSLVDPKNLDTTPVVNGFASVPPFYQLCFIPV
Protocol: (§3) CYP fingerprinting is well established technique and is used as an indication of potential risk of drug-drug interactions in the pharmaceutical sciences. Compounds of the present invention may be assayed by well known methods, essentially as follows: Compounds are incubated at 37° C. at a final concentration of 4 μM with pooled, mixed gender, human liver microsomes and 1 mM NADPH ([…]) (final conc.) for 0 and 30 min. without any CYP inhibitor and with each CYP inhibitor in separate incubations for 30 min. Each inhibitor is specific for an individual cytochrome P450. The specific inhibitors used for CYPs 2C9, 2D6 and 3A were sulfaphenazole, quinidine and ketoconazole, respectively. Ketoconazole (CYP3A) is made up at 25 mM in DMSO and then diluted in buffer to a final concetration of 10 μM. Quinidine (CYP2D6) is made up at 5 mM in 50/50 acetonitrile/water and then diluted in buffer to a final concetration of 10 μM. Sulfaphenazole (CYP2C9) is made up at 100 mM in DMSO and then diluted in buffer to a final concetration of 5 μM. Samples are analyzed by LC-MS in positive or negative electrospray mode using a Waters Acquity Ultra Performance LC coupled to a MicroMass Q-T of-2 mass spectrometer.
(§4) Data are analyzed using MetaboLynx™ version 4.1. With inhibitor present, a reduction in metabolite peak area of less than 30% (relative to the uninhibited control incubation) receives a designation of low risk of Drug Drug Interaction (DDI), a reduction in peak area between 30% and 70% receives a moderate risk of DDI and a reduction of more than 70% receives a high risk of DDI.

hCB-2 [3] = molecular target: T2, hCB-2; assay: hCB2-Sf9 agonist mode SPA GTP-γ-35S binding assay; assay type: biochemical; details: human CB-2 Sf9 membranes, read-out: hCB-2 SPA GTPγS Sf9 Membrane Agonist Relative EC50
Protocol: as §1
The hCB2-5f9 assay is run essentially as for the hCB1-sf9 and hCB2-sf9 antagonist assays above, with no challenging agonist added. 1 μM (final conc.) GDP is added to the membrane solution and nonidet P40, anti-Gi-antibody, and SPA bead are added together in a cocktail.
as §2

hCB-1 [4] = molecular target: T1, hCB-1; assay: hCB1-CHO antagonist mode SPA GTP-γ-35S binding assay; assay type: biochemical; details: human CB-1 CHO membranes, antagonist mode vs methanandamide; read-out: hCB-1 SPA GTPγS CHO Membrane Antagonist Kb
Protocol: as §1
(§5) hCB1-CHO and rCB1-CHO Antagonist Assays:
hCB1-CHO or rCB1-CHO membranes (Applied Cell Sciences, Rockville, Md.) and GDP (1 μM final) are added to ice cold assay buffer and homogenized. Diluted compounds, GTP-γ-^35S (500 nM final conc.) and membranes are added to wells of an assay plate and incubated for 30 min. at room temperature. Next, a mixture containing Nonidet P40 detergent (0.2% final conc.), rabbit polyclonal IgG Gαi-3 antibody (provided by Covance, Princeton, N.J.), and 1.25 mg anti-rabbit antibody scintillation proximity assay beads (GE Healthcare, Piscataway, N.J.) is added. The plates are sealed, vortexed, and incubated for an additional 2 hr. Plates are then centrifuged at 700×g for 10 min. and the radioactivity counted.
Data are analyzed as follows: Background is subtracted from all wells. […] Percent antagonist inhibition is calculated by first normalizing the data to the signal generated by a saturating concentration of the full agonist (methanandamide). Then the data are analyzed using a 4-parameter logistic reduced fit (Activity Base™ and XLFit3™ from IDBS, Emeryville, Calif.). Kb values are determined using a modification of the Cheng-Prusoff relationship: Kb=IC50/(1+[agonist]/EC50), where “IC50” is determined from a four parameter fit of displacement curves, “[agonist]” is the agonist challenge concentration (nM), and “EC50” is determined from a four parameter fit of a full agonist concentration response curve (Cheng and Prusoff 1973). Mean Kb values are calculated as a mean of at least three independent determinations±standard error of the mean (SEM). […]

rCB-1 = molecular target: T4, rCB-1 (Rattus norvegicus, UniProt P20272); assay: rCB1-CHO antagonist mode SPA GTP-γ-35S binding assay; assay type: biochemical; details: rat CB-1 CHO membranes, antagonist mode vs methanandamide; read-out: rCB-1 SPA GTPγS CHO Membrane Antagonist Kb
T4 construct: purchased Applied Cell Sciences, Rockville, Md; host or cells: CHO cells (membranes)
T4 sequence (P20272 whole entry): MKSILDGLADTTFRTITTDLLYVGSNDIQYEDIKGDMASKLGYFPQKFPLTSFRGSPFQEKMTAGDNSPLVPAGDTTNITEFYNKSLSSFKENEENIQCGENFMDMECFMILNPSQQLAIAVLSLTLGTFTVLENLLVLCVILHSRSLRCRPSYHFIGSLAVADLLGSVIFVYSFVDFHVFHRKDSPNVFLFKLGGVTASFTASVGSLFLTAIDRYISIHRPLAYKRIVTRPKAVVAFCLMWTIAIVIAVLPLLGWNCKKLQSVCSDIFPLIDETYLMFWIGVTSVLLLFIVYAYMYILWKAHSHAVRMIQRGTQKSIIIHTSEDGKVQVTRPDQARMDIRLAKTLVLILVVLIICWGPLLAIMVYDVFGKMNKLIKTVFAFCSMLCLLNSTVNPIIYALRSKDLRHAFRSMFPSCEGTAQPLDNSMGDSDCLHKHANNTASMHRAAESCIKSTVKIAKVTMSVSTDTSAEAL
Protocol: as §1, §5
hCB1-CHO or rCB1-CHO membranes (Applied Cell Sciences, Rockville, Md.) and GDP (1 μM final) are added to ice cold assay buffer and homogenized. […] Plates are then centrifuged at 700×g for 10 min. and the radioactivity counted.
Data are analyzed as follows: Background is subtracted from all wells. […] Percent antagonist inhibition is calculated by first normalizing the data to the signal generated by a saturating concentration of the full agonist (methanandamide). Then the data are analyzed using a 4-parameter logistic reduced fit (Activity Base™ and XLFit3™ from IDBS, Emeryville, Calif.). Kb values are determined using a modification of the Cheng-Prusoff relationship: Kb=IC50/(1+[agonist]/EC50), where “IC50” is determined from a four parameter fit of displacement curves, “[agonist]” is the agonist challenge concentration (nM), and “EC50” is determined from a four parameter fit of a full agonist concentration response curve (Cheng and Prusoff 1973). […]

CYP3A = assay: Human CYP fingerprinting, ketoconazole inhibitor; assay type: in vitro ADME; details: 4 μM, human liver microsomes, 30 min, ketoconazole 10 μM
Protocol: as §3, §4

CYP2D6 = molecular target: T5, CYP2D6 (Homo sapiens, UniProt P10635); assay: Human CYP fingerprinting, quinidine inhibitor; assay type: in vitro ADME; details: 4 μM, human liver microsomes, 30 min, quinidine 10 μM
T5 construct: pooled, mixed gender, human liver microsomes; from tissue; host or cells: pooled, mixed gender human liver microsomes
T5 sequence (P10635 whole entry): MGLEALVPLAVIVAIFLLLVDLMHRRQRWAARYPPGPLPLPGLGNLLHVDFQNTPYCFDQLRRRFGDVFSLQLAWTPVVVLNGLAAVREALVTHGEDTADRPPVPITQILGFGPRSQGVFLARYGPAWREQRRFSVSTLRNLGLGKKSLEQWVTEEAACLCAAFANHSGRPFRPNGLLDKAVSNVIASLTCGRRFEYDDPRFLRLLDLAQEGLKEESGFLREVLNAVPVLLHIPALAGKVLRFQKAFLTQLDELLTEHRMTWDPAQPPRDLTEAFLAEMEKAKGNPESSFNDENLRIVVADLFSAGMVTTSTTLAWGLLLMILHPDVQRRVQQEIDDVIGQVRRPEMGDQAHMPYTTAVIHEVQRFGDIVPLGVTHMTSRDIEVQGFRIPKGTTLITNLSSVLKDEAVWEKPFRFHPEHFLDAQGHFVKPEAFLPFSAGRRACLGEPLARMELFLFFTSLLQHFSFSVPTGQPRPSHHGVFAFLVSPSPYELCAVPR
Protocol: as §3, §4

Row | Structure (SMILES) | hCB-1 SPA GTPγS CHO Membrane Agonist % Relative Efficacy (hCB-1 [1]) [%] | Kb (hCB-2 [2]) [nM] | Risk of Drug Drug Interaction (DDI) CYP2C9 (CYP2C9) | EC50 (hCB-2 [3]) [nM] | Kb (hCB-1 [4]) [nM] | Kb (rCB-1) [nM] | Risk of Drug Drug Interaction (DDI) CYP3A (CYP3A) | EC50 (hCB-1 [1]) [nM] | Risk of Drug Drug Interaction (DDI) CYP2D6 (CYP2D6)
1 | CC(C)(N[C@@H]1C[C@H](c2cccc(OC(F)(F)F)c2)N(c2ccc(C(F)(F)F)cc2)C1=O)c1ccnc(C(F)(F)F)n1 [Example 1, (3R,5R)-3-[1-Methyl-1-(2-trifluoromethyl-pyrimidin-4-yl)-ethylamino]-5-(3-trifluoromethoxy-phenyl)-1-(4-trifluoromethyl-phenyl)-pyrrolidin-2-one] | −99.3 | > 8710 | low (a reduction in metabolite peak area of less than 30% (relative to the uninhibited control incubation) receives a designation of low risk of Drug Drug Interaction (DDI)) | > 8710 | 0.895 | 0.177 | – | – | –
2 | CC(C)(N[C@@H]1C[C@H](c2cccc(OC(F)(F)F)c2)N(c2ccc(C(F)(F)F)cc2)C1=O)c1ccnc(C2CC2)n1 [Example 2, (3R,5R)-3-[1-(2-Cyclopropyl-pyrimidin-4-yl)-1-methyl-ethylamino]-5-(3-trifluoromethoxy-phenyl)-1-(4-trifluoromethyl-phenyl)-pyrrolidin-2-one] | −108 | > 10800 | low (a reduction in metabolite peak area of less than 30% (relative to the uninhibited control incubation) receives a designation of low risk of Drug Drug Interaction (DDI)) | > 10800 | 0.644 | – | low (a reduction in metabolite peak area of less than 30% (relative to the uninhibited control incubation) receives a designation of low risk of Drug Drug Interaction (DDI)) | 2.39 | low (a reduction in metabolite peak area of less than 30% (relative to the uninhibited control incubation) receives a designation of low risk of Drug Drug Interaction (DDI))
3 | CC(C)(N[C@@H]1C[C@H](c2cccc(F)c2)N(c2ccc(OC(F)(F)F)cc2)C1=O)c1ccnc(C(F)(F)F)n1 [Example 3, (3R,5R)-3-[1-Methyl-1-(2-trifluoromethyl-pyrimidin-4-yl)-ethylamino]-5-(3-fluoro-phenyl)-1-(4-trifluoromethoxy-phenyl)-pyrrolidin-2-one] | −107 | 397 | low (a reduction in metabolite peak area of less than 30% (relative to the uninhibited control incubation) receives a designation of low risk of Drug Drug Interaction (DDI)) | 379 | 0.916 | 0.195 | low (a reduction in metabolite peak area of less than 30% (relative to the uninhibited control incubation) receives a designation of low risk of Drug Drug Interaction (DDI)) | 1.11 | low (a reduction in metabolite peak area of less than 30% (relative to the uninhibited control incubation) receives a designation of low risk of Drug Drug Interaction (DDI))
4 | CC(C)(N[C@@H]1C[C@H](c2ccccc2)N(c2ccc(OC(F)(F)F)cc2)C1=O)c1ccnc(C(F)(F)F)n1 [Example 4] | −105 | 288 | low (a reduction in metabolite peak area of less than 30% (relative to the uninhibited control incubation) receives a designation of low risk of Drug Drug Interaction (DDI)) | 288 | 0.83 | 0.176 | low (a reduction in metabolite peak area of less than 30% (relative to the uninhibited control incubation) receives a designation of low risk of Drug Drug Interaction (DDI)) | 2.52 | low (a reduction in metabolite peak area of less than 30% (relative to the uninhibited control incubation) receives a designation of low risk of Drug Drug Interaction (DDI))
5 | CC(C)(N[C@@H]1C[C@H](c2cccc(OC(F)(F)F)c2)N(c2ccc(C(F)(F)F)cc2)C1=O)c1ccnc(C(F)(F)F)n1 [Example 6, (3R,5R)-3-[1-Methyl-1-(2-trifluoromethyl-pyrimidin-4-yl)-ethylamino]-5-(3-trifluoromethoxy-phenyl)-1-(4-trifluoromethyl-phenyl)-pyrrolidin-2-one adipate] | – | – | – | – | – | – | low (a reduction in metabolite peak area of less than 30% (relative to the uninhibited control incubation) receives a designation of low risk of Drug Drug Interaction (DDI)) | – | low (a reduction in metabolite peak area of less than 30% (relative to the uninhibited control incubation) receives a designation of low risk of Drug Drug Interaction (DDI))
